Common to all, as to assay: transactivation assay (GAL4 chimeric receptor, luciferase) in CV-1 cells
Common to all, as to assay type: cell-based

One test concerns the target T1, Mouse PPAR-α (Mus musculus, UniProt P23204).
T1 construct: expressed in transfected cells; host or cells: CV-1 (CCL-70, ATCC)
T1 sequence (P23204 239-466 limits assumed): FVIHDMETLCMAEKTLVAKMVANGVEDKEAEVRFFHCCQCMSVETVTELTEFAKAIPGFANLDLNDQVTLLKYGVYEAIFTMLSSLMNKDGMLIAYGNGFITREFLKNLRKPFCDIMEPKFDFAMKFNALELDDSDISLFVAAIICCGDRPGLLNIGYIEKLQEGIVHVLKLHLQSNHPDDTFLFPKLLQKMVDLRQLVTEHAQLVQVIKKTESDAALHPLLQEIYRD
The conditions noted are these: for Emax: CV-1, Relative Response % to maximum effects of the positive control drug, read-out: Max % Mouse PPAR-α; for pEC50: CV-1 cells, GAL4 chimeric receptor, 24 hours. The method, then:
(§1) Following induction of transient intracellular expression of PPAR-α and -γ, an ability of the inventive compounds to induce transactivation of PPARs via activation of each PPAR was evaluated as an efficacy of the compound (transactivation assay).
(§2) For this assay, the African green monkey kidney cell line CV-1 (CCL-70, ATCC) was used as a test cell line, and PPAR-α and -γ were murine- and human-derived PPARs. Samples used were compounds prepared in Examples 19, 21, 23, 25, 26, 27, 31, 33, 34, 36, 38, 40, 42, 43 and 50. As a positive control drug, 3-4-[2-(2-phenyl-4-methyl-1,3-oxazole)ethyloxy]phenyl-(2S)-[(1-methyl-3-oxo-3-phenyl)propenyl]aminopropionic acid was used that is a PPAR-α or -γ agonist which was once under development and whose clinical trials and studies were suspended at phase III. A chimeric receptor was adopted to circumvent the probable interference due to endogenous receptor activation (Jian-Shen Q. et al., Mol Cell Biol (1995) 15(3):1817-1825). The chimeric receptor was constructed as a fusion of a PPAR-α or -γ ligand-binding domain with a DNA-binding domain of GAL4 which is a yeast transactivator.
(§3) The CV-1 cells were transiently transfected with each of chimeric receptor-expressing DNA constructs and each of DNA constructs comprising 5 copies of the GAL4 DNA-binding domain and capable of inducing expression of firefly luciferase or Renilla luciferase using a Lipofectamine Plus reagent (Invitrogen, USA). After transfection for 3 hours, the culture media were replaced with DMEM containing the above samples and 10% fetal bovine serum. 24 hours later, the firefly luciferase activity and Renilla luciferase activity were continuously assayed while adding an equal amount of a dual luciferase assay reagent (Promega, USA) to the cell-containing media. The transfection efficiency was normalized against Renilla luciferase activity (Motomura W. et al., Int J Cancer (2004) 108(1):41-6). The PPAR-α and -γ activity was determined by calculating Relative Response % to maximum effects of the positive control drug, and conducting multiple dose evaluation of the inventive compounds to calculate EC50, which is the concentration of a drug which produces 50% activation relative to maximum effects of the inventive compounds, by nonlinear regression analysis.

In another test the target is T2, Human PPAR-γ (Homo sapiens, UniProt P37231).
T2 construct: expressed in transfected cells; host or cells: CV-1 (CCL-70, ATCC)
T2 sequence (P37231 238-503 limits assumed): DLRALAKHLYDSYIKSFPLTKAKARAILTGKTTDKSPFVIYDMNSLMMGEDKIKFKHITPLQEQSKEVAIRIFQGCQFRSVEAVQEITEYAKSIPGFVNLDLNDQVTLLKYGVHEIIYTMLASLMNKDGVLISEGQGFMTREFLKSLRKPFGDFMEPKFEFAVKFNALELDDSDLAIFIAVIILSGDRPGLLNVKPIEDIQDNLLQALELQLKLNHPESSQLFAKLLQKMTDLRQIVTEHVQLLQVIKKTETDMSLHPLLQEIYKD
The conditions noted are these: for Emax: CV-1, Relative Response % to maximum effects of the positive control drug, read-out: Max % Human PPAR-γ; for pEC50: CV-1 cells, GAL4 chimeric receptor, 24 hours. As for the experimental part:
as §1, §2, §3

The target of another test is T3, Human PPAR-α (Homo sapiens, UniProt Q07869).
T3 construct: expressed in transfected cells; host or cells: CV-1 (CCL-70, ATCC)
T3 sequence (Q07869 239-466 limits assumed): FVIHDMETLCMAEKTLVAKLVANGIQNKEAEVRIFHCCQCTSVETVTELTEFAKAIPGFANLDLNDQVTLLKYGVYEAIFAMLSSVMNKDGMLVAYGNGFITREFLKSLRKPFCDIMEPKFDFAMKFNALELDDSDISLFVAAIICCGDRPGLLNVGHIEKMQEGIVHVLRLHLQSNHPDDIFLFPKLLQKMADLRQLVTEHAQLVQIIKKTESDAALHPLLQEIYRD
The following applies: for Emax: CV-1, Relative Response % to maximum effects of the positive control drug, read-out: Max % Human PPAR-α; for pEC50: CV-1 cells, GAL4 chimeric receptor, 24 hours. As for the experimental part: as §1, §2, §3

The next test deals with T4, Mouse PPAR-γ (Mus musculus, UniProt P37238).
T4 construct: expressed in transfected cells; host or cells: CV-1 (CCL-70, ATCC)
T4 sequence (P37238 238-503 limits assumed): T2 sequence (P37231 238-503 limits assumed) with S93N, V98I, S146N, L226V, Q245H
The following applies: for Emax: CV-1, Relative Response % to maximum effects of the positive control drug, read-out: Max % Mouse PPAR-γ; for pEC50: CV-1 cells, GAL4 chimeric receptor, 24 hours. As for the experimental part: as §1, §2, §3

Numbering of substitutions follows the chain as printed. pEC50: −log10 of the molar value.

A word on the pEC50: it is the negative decadic logarithm of the EC50, by convention in mol/L. High values mean a small EC50, low ones a large EC50. As to `CCO[C@@H](Cc1ccc(OCc2sc(-c3ccc(-c4nnn(C)n4)cc3)cc2C)cc1)C(=O)O` [Example 29, (S)-2-ethoxy-3-(4-((3-methyl-5-(4-(2-methyl-2H-tetrazol-5-yl)phenyl)thiophen-2-yl)methoxy)phenyl)propionic acid], the Emax at Mouse PPAR-α is 31%; on Human PPAR-γ it was 66%; on Human PPAR-α, 52%; on Mouse PPAR-γ it was 48%. Also, the pEC50 at Mouse PPAR-α is 6.42; on Human PPAR-γ, 7.31; at Human PPAR-α, 5.91; at Mouse PPAR-γ, 6.93.
For `CCO[C@@H](Cc1ccc(OCc2sc(-c3ccc(-c4csnn4)cc3)cc2C)cc1)C(=O)O` [Example 24, (S)-3-(4-((5-(4-(1,2,3-thiadiazol-4-yl)phenyl)-3-methylthiophen-2-yl)methoxy)phenyl)-2-ethoxypropionic acid], the Emax was determined as 23% at Mouse PPAR-α, 45% on Human PPAR-γ, 19% on Human PPAR-α and 38% at Mouse PPAR-γ. Further, the pEC50 on Mouse PPAR-α is 5.31; on Human PPAR-γ, 7.49; on Human PPAR-α, 5.85; on Mouse PPAR-γ it was 7.08.
With `CCO[C@@H](Cc1ccc(OCc2sc(-c3ccc(C4=Nc5ccccc5OC4)cc3)cc2C)cc1)C(=O)O` [Example 23, (S)-3-(4-((5-(4-(2H-benzo[b][1,4]oxazin-3-yl)phenyl)-3-methylthiophen-2-yl)methoxy)phenyl)-2-ethoxypropionic acid], the Emax on Mouse PPAR-α amounted to 43%; at Human PPAR-γ, 83%; on Human PPAR-α, 44%; at Mouse PPAR-γ it was 67%. In addition, the pEC50 on Mouse PPAR-α was 6.98; on Human PPAR-γ it was 7.19; at Human PPAR-α, 5.70; at Mouse PPAR-γ it was 6.78.
Regarding `CCO[C@@H](Cc1ccc(OCc2sc(-c3ccc(C4=NCCCO4)cc3)cc2C)cc1)C(=O)O` [Example 19, (S)-3-(4-((5-(4-(5,6-dihydro-4H-1,3-oxazin-2-yl)phenyl)-3-methylthiophen-2-yl)methoxy)phenyl)-2-ethoxypropionic acid], the Emax on Mouse PPAR-α was 19%; at Human PPAR-γ, 43%; on Human PPAR-α, 44%; on Mouse PPAR-γ, 43%. In addition, the pEC50 was 5.17 on Mouse PPAR-α, 7.35 at Human PPAR-γ, 5.18 on Human PPAR-α and 6.55 on Mouse PPAR-γ.
`CCO[C@@H](Cc1ccc(OCc2sc(-c3ccc(-c4nnn(C(C)C)n4)cc3)cc2C)cc1)C(=O)O` [Example 31, (S)-2-ethoxy-3-(4-((5-(4-(2-isopropyl-2H-tetrazol-5-yl)phenyl)-3-methylthiophen-2-yl)methoxy)phenyl)propionic acid]: the Emax at Mouse PPAR-α stood at 10%; on Human PPAR-γ, 25%; at Human PPAR-α, 21%; on Mouse PPAR-γ it was 23%. For the same compound, the pEC50 is 5.51 at Mouse PPAR-α, 7.00 on Human PPAR-γ, 6.32 at Human PPAR-α and 7.24 at Mouse PPAR-γ.
Consider `CCO[C@@H](Cc1ccc(OCc2sc(-c3ccc(-c4cc(C(=O)NC)no4)cc3)cc2C)cc1)C(=O)O` [Example 38, (S)-2-ethoxy-3-(4-((3-methyl-5-(4-(3-(methylcarbamoyl)isoxazol-5-yl)phenyl)thiophen-2-yl)methoxy)phenyl)propionic acid], for which the Emax at Mouse PPAR-α came out at 49%; at Human PPAR-γ, 68%; at Human PPAR-α it was 51%; on Mouse PPAR-γ, 81%. Further, the pEC50 on Mouse PPAR-α is 5.24; at Human PPAR-γ, 7.00; on Human PPAR-α it was 5.29; at Mouse PPAR-γ, 6.74.
Regarding `CCO[C@@H](Cc1ccc(OCc2sc(-c3ccc(-c4noc(C)n4)cc3)cc2C)cc1)C(=O)O` [Example 25, (S)-2-ethoxy-3-(4-((3-methyl-5-(4-(5-methyl-1,2,4-oxadiazol-3-yl)phenyl)thiophen-2-yl)methoxy)phenyl)propionic acid], the Emax on Mouse PPAR-α was found to be 35%; on Human PPAR-γ, 48%; at Human PPAR-α, 63%; at Mouse PPAR-γ it was 48%. Also, the pEC50 on Mouse PPAR-α is 6.35; on Human PPAR-γ, 7.02; on Human PPAR-α, 5.28; at Mouse PPAR-γ, 6.53.
For `CCO[C@@H](Cc1ccc(OCc2sc(-c3ccc(-c4cc(C)no4)cc3)nc2C)cc1)C(=O)O` [Example 47, (S)-2-ethoxy-3-(4-((4-methyl-2-(4-(3-methylisoxazol-5-yl)phenyl)thiazol-5-yl)methoxy)phenyl)propionic acid], the Emax amounted to 71% at Mouse PPAR-α, 50% at Human PPAR-γ, 60% at Human PPAR-α and 70% at Mouse PPAR-γ. The pEC50 is 6.25 at Mouse PPAR-α, 7.09 at Human PPAR-γ, 5.85 on Human PPAR-α and 6.68 on Mouse PPAR-γ.
For the compound `CCO[C@@H](Cc1ccc(OCc2sc(-c3ccc(-c4cc(COC)no4)cc3)cc2C)cc1)C(=O)O` [Example 40, (S)-2-ethoxy-3-(4-((5-(4-(3-(methoxymethyl)isoxazol-5-yl)phenyl)-3-methylthiophen-2-yl)methoxy)phenyl)propionic acid], the Emax at Mouse PPAR-α amounted to 5%; on Human PPAR-γ, 31%; at Human PPAR-α, 7%; at Mouse PPAR-γ, 30%. Also, the pEC50 is 7.72 at Human PPAR-γ and 6.96 on Mouse PPAR-γ.
For the compound `CCO[C@@H](Cc1ccc(OCc2sc(-c3ccc(-c4nc(C)c(C)o4)cc3)cc2C)cc1)C(=O)O` [Example 34, (S)-3-(4-((5-(4-(4,5-dimethyloxazol-2-yl)phenyl)-3-methylthiophen-2-yl)methoxy)phenyl)-2-ethoxypropionic acid], the Emax worked out at 31% on Mouse PPAR-α, 75% on Human PPAR-γ, 31% on Human PPAR-α and 81% at Mouse PPAR-γ. The pEC50 was 5.46 on Mouse PPAR-α, 7.74 on Human PPAR-γ, 6.32 at Human PPAR-α and 6.75 at Mouse PPAR-γ.
`CCO[C@@H](Cc1ccc(OCc2sc(-c3ccc(C(=O)N4CCOCC4)cc3)cc2C)cc1)C(=O)O` [Example 17, (S)-2-ethoxy-3-(4-((3-methyl-5-(4-(morpholino-4-carbonyl)phenyl)thiophen-2-yl)methoxy)phenyl)propionic acid]: the Emax at Mouse PPAR-α amounted to 11%; at Human PPAR-γ it was 47%; on Human PPAR-α, 12%; at Mouse PPAR-γ, 117%. Moreover, the values for the pEC50 on Human PPAR-γ, on Human PPAR-α and at Mouse PPAR-γ were 5.90, 5.49 and 4.84, respectively.

For the origin of these results see patent publication US20100063041A1, “NOVEL PHENYLPROPIONIC ACID DERIVATIVES AS PEROXISOME PROLIFERATOR-ACTIVATED GAMMA RECEPTOR MODULATORS, METHOD OF THE SAME, AND PHARMACEUTICAL COMPOSITION COMPRISING THE SAME” (priority 2007, published 2010).
